For test [1], the system named is yeast Y229-1 (PCDC48 (SEQ ID NO: 53)-PH05-Renlla Luciferase). Description: IC90 calculated from Renilla luciferase light output (baseline promoter reporter). Format: cell-based, Saccharomyces cerevisiae. The note with it: 24 hours at 30° C., YPD, 1% DMSO.
For test [2] the test system is unchanged. The test is described as follows: MIC determined visually. The note with it: minimum inhibitor concentration at which there is an approximately 90% drop in cell number relative to the uninhibited control. Format: cell-based, Saccharomyces cerevisiae.
Setting [3] is: Saccharomyces cerevisiae, inhibitor concentration at which there is a 90% drop in luciferase signal relative to the uninhibited control, read-out: IC90.
The mark [4] stands for this setting: Saccharomyces cerevisiae, read-out: MIC.

Drawing on patent US7872115B2, “Reporter assay screens for protein targets in Saccharomyces cerevisiae” (Schering Corporation, priority 2004, dated 2011), this text covers IC90 and MIC for 6 compounds.

Each structure is given as a SMILES string. Converted amounts (≈) assume the structure as drawn. Read-outs that look alike come from different tables or passages of the source.

What is called IC90 is the concentration needed for an effect of 90%. One may read the MIC as the smallest concentration in the dilution series that meets the test's criterion for growth inhibition. Consider `Nc1nc(=O)[nH]cc1F` [5FC, 5-fluorocytosine], for which the concentration for an effect of 90% (IC90) in test [1] (setting [3]) is 1.9 µg/mL (≈ 14.7 µM). Also, the MIC in test [2] (setting [4]) is 2.5 µg/mL (≈ 19.4 µM).
With `C[C@@H]1[C@H](O)[C@@H](C)/C=C/C=C/C=C/C=C/C=C/C=C/C=C/[C@H](O[C@@H]2O[C@H](C)[C@@H](O)[C@H](N)[C@@H]2O)C[C@@H]2O[C@](O)(C[C@@H](O)C[C@@H](O)[C@H](O)CC[C@@H](O)C[C@@H](O)CC(=O)O[C@H]1C)C[C@H](O)[C@H]2C(=O)O` [AMB, amphotericin B], the concentration for an effect of 90% (IC90) in test [1] (inhibitor concentration at which there is a 90% drop in luciferase signal relative to the uninhibited control) was 0.3 µg/mL (≈ 0.325 µM). Also, the MIC in test [2] was 0.3 µg/mL (≈ 0.325 µM).
Take `CC[C@H](C)C[C@H](C)CCCCCCCCC(=O)N[C@H]1C[C@@H](O)[C@@H](NCCN)NC(=O)[C@@H]2[C@@H](O)CCN2C(=O)[C@H]([C@H](O)CCN)NC(=O)[C@H]([C@H](O)[C@@H](O)c2ccc(O)cc2)NC(=O)[C@@H]2C[C@@H](O)CN2C(=O)[C@H]([C@@H](C)O)NC1=O` [CSP, caspofungin]: the IC90 in test [1] (Saccharomyces cerevisiae, […], read-out: IC90) was 0.02 µg/mL (≈ 0.0183 µM). Moreover, the MIC in test [2] (setting [4]) is 0.015 µg/mL (≈ 0.0137 µM).
Turning to `OC(Cn1cncn1)(Cn1cncn1)c1ccc(F)cc1F` [FLU, fluconazole], in test [1] (setting [3]), the concentration for an effect of 90% (IC90) was 0.3 µg/mL (≈ 0.98 µM). Moreover, the MIC in test [2] (setting [4]) stood at 0.2 µg/mL (≈ 0.653 µM).
The like results for `CN(C/C=C/C#CC(C)(C)C)Cc1cccc2ccccc12` [TRB, terbinafine] were, in that order, 1.4 µg/mL (≈ 4.8 µM) and 1.56 µg/mL (≈ 5.35 µM).
Take `C[C@@H](c1ncncc1F)[C@](O)(Cn1cncn1)c1ccc(F)cc1F` [VOR, voriconazole]: the concentration for an effect of 90% (IC90) in test [1] (setting [3]) is 0.008 µg/mL (≈ 0.0229 µM). In test [2] (setting [4]), the MIC turned out to be 0.015 µg/mL (≈ 0.0429 µM).
